Test [1] relates to human ileum monolayer culture. Kind of test: Sustained inhibition of apical acid secretion in human organoid monolayer cell cultures (ileum). The class given is cell-based. The conditions noted are these: Homo sapiens, 48 h; 1 μM apical, dosed day 6, apical media pH day 8, vs DMSO. As for the experimental part:
(§1) Basal media (BM) consisted of advanced DMEM/F12 containing 10 mM HEPES Invitrogen, 15630-080), 1:100 Glutamax (Invitrogen, 35050-061), and 1:100 penicillin/streptomycin (Invitrogen, 15140-122). Supplemented basal media (SBM) contained 1:100 N2 (Invitrogen, 17502-048), 1:50 B27 (Invitrogen, 12587-010), 1 mM N-acetylcysteine (Sigma, A9165), and 10 nM [Leu15]-gastrin I (Sigma, G9145). Growth factors used included 50 ng per mL mouse EGF (Peprotech, 315-09), 100 ng per mL mouse noggin (Peprotech, 250-38), 500 ng per mL human R-spondin 1 (R&D, 4645-RS), 100 ng per mL mouse Wnt-3a (R&D, 1324-WN), 20 μM. Y-27632 (Tocris, 1254), 10 mM nicotinamide (Sigma, N0636), 500 nM A83-01 (Tocris, 2939), 10 μM SB202190 (Tocris, 1264). Transwells were 0.4 μm pore polyester membrane 24-well Transwell inserts (Corning). Cultures were incubated at 37° C. in 5% CO2.
(§2) Human ileum organoids were cultured in WENRNAS (Wnt, EGF, noggin, R-spondin1, Nicotinamide, A83-01, SB202190) and typically grown for 7-12 days before being used to plate monolayer cultures. On day 0, organoid cultures embedded in Matrigel were treated with TrypLE Express to break organoids into small pieces and/or single cells. The cells were resuspended to 0.5×10^6 cells/mL in SBM containing WENRAY (Wnt, EGF, noggin, R-spondin1, A83-01, Y-27632). Following this step, 200 μL of cell suspension was plated into the apical side of a 24-well Transwell (100,000 cells/well) and 600 μL of SBM with WENRAY was added to the basolateral side. Ileum cells were differentiated with ENRA (EGF, noggin, R-spondin 1, A83-01) on day 3. The color of apical compartment turns from pink or orange to yellow due to the increase in NHE3 expression after differentiation.
Each human ileum monolayer culture well was washed twice with fresh SBM on the apical side on day 6 before compound dosing. All compound stocks were 10 mM dissolved in DMSO. Each compound stock was individually mixed with fresh SBM to reach final compound concentration 1 μM and dosed only on the apical side of the monolayer (total volume 200 μl). DMSO at the equivalent concentration was used as the vehicle control. Duplicate wells were dosed for each compound. On day 8, apical media pH was measured by pH electrode, to determine the ability of example compounds to produce sustained inhibition of NHE3 activity in a human monolayer culture system by preventing proton secretion into the apical compartment.

For test [2], the system named is human duodenum monolayer culture. The test can be described thus: Increased trans-epithelial resistance (TEER) in human organoid monolayer cell cultures. The conditions noted are these: 1 μM apical, baseline corrected. The test is classed as cell-based. The method, then: as §1, with “media (B” for “media (BM)”, “HEPES (Invitrogen,” for “HEPES Invitrogen,”, “20 μM” for “20 μM.”
as §2, with “Human duodenum” for “Human ileum”, “side. Duodenum” for “side. Ileum”, “with ENA” for “with ENRA”, “noggin,” for “noggin, R-spondin 1,”
Each human duodenum monolayer culture well was washed twice with fresh SBM on the apical side on day 6 or day 7 before dosing. All compound stocks were 10 mM dissolved DMSO. Each compound stock was individually mixed with fresh SBM to reach final compound concentration 1 μM and dosed only on the apical side of the monolayer (total volume 200 μl). DMSO at the equivalent concentration was used as the vehicle control. Duplicate wells were dosed for each compound. Transepithelial electrical resistance (TEER) was used as a quantitative technique to measure of tight junction permeability. TEER values were recorded (MERS00002, Millipore) before dosing and 30 mins and 1 hr after dosing for all wells. Each of the duplicate TEER values following treatment were corrected for the individual well baseline TEER. Baseline corrected TEER for each example compound was compared to the average of the DMSO wells and expressed as a percent TEER of vehicle control.

Where [3] appears, read: 1 hr after dosing, read-out: TEER at 60 minutes (% of Vehicle).
[4] abbreviates: 0.5 h, 30 mins after dosing, read-out: TEER at 30 minutes (% of Vehicle).

Where two headings read alike, the source gives them in different places.

For orientation: inhibition means the share of the control response that was lost under treatment. Low values mean a weak effect, high ones a strong effect. On to `Cc1cc(S(=O)(=O)NCCOCCOCCNC(=O)NCCCCNC(=O)NCCOCCOCCNS(=O)(=O)c2ccc(O[C@H]3c4cc(Cl)cc(C)c4C[C@@H]3N(C)C)c(C)c2)ccc1O[C@H]1c2cc(Cl)cc(C)c2C[C@@H]1N(C)C` [Example 17, 3-[2-(2-[2-[(4-[[(1S,2S)-6-Chloro-2-(dimethylamino)-4-methyl-2,3-dihydro-1H-inden-1-yl]oxy]-3-methylbenzene)sulfonamido]ethoxy]ethoxy)ethyl]-1-[4-([[2-(2-[2-[(4-[[(1S,2S)-6-chloro-2-(dimethylamino)-4-methyl-2,3-dihydro-1H-inden-1-yl]oxy]-3-methylbenzene)sulfonamido]ethoxy]ethoxy)ethyl]carbamoyl]amino)butyl]urea], for which the inhibition at 1 µM in test [1] fell in the range of 50 to 70%. Also, the activity at 1 µM in test [2] (setting [3]) and in test [2] (setting [4]) was 100 to 130% throughout.
Turning to `Cc1cc(Cl)cc2c1C[C@H](N(C)C)[C@H]2Oc1ccc(S(=O)(=O)NCCOCCOCCNC(=O)NCCCCNC(=O)NCCOCCOCCNS(=O)(=O)c2ccc(O[C@H]3c4cc(Cl)cc(C)c4C[C@@H]3N(C)C)c(F)c2)cc1F` [Example 24, 3-[2-(2-[2-[(4-[[(1S,2S)-6-Chloro-2-(dimethylamino)-4-methyl-2,3-dihydro-1H-inden-1-yl]oxy]-3-fluorobenzene)sulfonamido]ethoxy]ethoxy)ethyl]-1-[4-([[2-(2-[2-[(4-[[(1S,2S)-6-chloro-2-(dimethylamino)-4-methyl-2,3-dihydro-1H-inden-1-yl]oxy]-3-fluorobenzene)sulfonamido]ethoxy]ethoxy)ethyl]carbamoyl]amino)butyl]urea], the inhibition at 1 µM in test [1] is under 50%. Further, the activity at 1 µM in test [2] (setting [3]) and in test [2] (setting [4]) was 100 to 130% in each case.
`O=C(NCCCCNC(=O)NCCOCCOCCNS(=O)(=O)c1ccc(O[C@H]2c3cc(Cl)cc(Cl)c3C[C@@H]2N2CCNCC2)cc1)NCCOCCOCCNS(=O)(=O)c1ccc(O[C@H]2c3cc(Cl)cc(Cl)c3C[C@@H]2N2CCNCC2)cc1` [Example 31, 3-[2-(2-[2-[(4-[[(1S,2S)-4,6-Dichloro-2-(piperazin-1-yl)-2,3-dihydro-1H-inden-1-yl]oxy]benzene)sulfonamido]ethoxy]ethoxy)ethyl]-1-[4-([[2-(2-[2-[(4-[[(1S,2S)-4,6-dichloro-2-(piperazin-1-yl)-2,3-dihydro-1H-inden-1-yl]oxy]benzene)sulfonamido]ethoxy]ethoxy)ethyl]carbamoyl]amino)butyl]urea; bis(trifluoroacetic acid)] came in with an inhibition at 1 µM in test [1] of over 70%. Also, the activity at 1 µM was over 130% in test [2] (setting [3]) and 100 to 130% in test [2] (setting [4]).
Turning to `Cc1cc(S(=O)(=O)NCCOCCOCCNC(=O)NCCCCNC(=O)NCCOCCOCCNS(=O)(=O)c2ccc(O[C@H]3c4cc(Cl)cc(Cl)c4C[C@@H]3N3CCNCC3)c(C)c2)ccc1O[C@H]1c2cc(Cl)cc(Cl)c2C[C@@H]1N1CCNCC1` [Example 32, 3-[2-(2-[2-[(4-[[(1S,2S)-4,6-Dichloro-2-(piperazin-1-yl)-2,3-dihydro-1H-inden-1-yl]oxy]-3-methylbenzene)sulfonamido]ethoxy]ethoxy)ethyl]-1-[4-([[2-(2-[2-[(4-[[(1S,2S)-4,6-dichloro-2-(piperazin-1-yl)-2,3-dihydro-1H-inden-1-yl]oxy]-3-methylbenzene)sulfonamido]ethoxy]ethoxy)ethyl]carbamoyl]amino)butyl]urea; bis(trifluoroacetic acid)], in test [1], the inhibition at 1 µM is over 70%. Further, the results for the activity at 1 µM in test [2] (setting [3]) and in test [2] (setting [4]) were over 130% and 100 to 130%, respectively.
Taken in the same sequence, the figures for `O=C(NCCCCNC(=O)NCCOCCOCCNS(=O)(=O)c1ccc(O[C@H]2c3cc(Cl)cc(Cl)c3C[C@@H]2N2CCNCC2)c(F)c1)NCCOCCOCCNS(=O)(=O)c1ccc(O[C@H]2c3cc(Cl)cc(Cl)c3C[C@@H]2N2CCNCC2)c(F)c1` [Example 33, 3-[2-(2-[2-[(4-[[(1S,2S)-4,6-Dichloro-2-(piperazin-1-yl)-2,3-dihydro-1H-inden-1-yl]oxy]-3-fluorobenzene)sulfonamido]ethoxy]ethoxy)ethyl]-1-[4-[[(2-(2-[2-[(4-[[(1S,2S)-4,6-dichloro-2-(piperazin-1-yl)-2,3-dihydro-1H-inden-1-y]oxy]-3-fluorobenzene)sulfonamido]ethoxy]ethoxy)ethyl]carbamoyl]amino)butyl]urea; bis(trifluoroacetic acid)] were over 70%, over 130% and 100 to 130%.
Molecule `N#Cc1cc(Cl)cc2c1C[C@H](N1CCNCC1)[C@H]2Oc1ccc(S(=O)(=O)NCCOCCOCCNC(=O)NCCCCNC(=O)NCCOCCOCCNS(=O)(=O)c2ccc(O[C@H]3c4cc(Cl)cc(C#N)c4C[C@@H]3N3CCNCC3)cc2)cc1` [Example 41, 3-[2-(2-[2-[(4-[[(1S,2S)-6-Chloro-4-cyano-2-(piperazin-1-yl)-2,3-dihydro-1H-inden-1-yl]oxy]benzene)sulfonamido]ethoxy]ethoxy)ethyl]-1-[4-([[2-(2-[2-[(4-[[(1S,2S)-6-chloro-4-cyano-2-(piperazin-1-yl)-2,3-dihydro-1H-inden-1-yl]oxy]benzene)sulfonamido]ethoxy]ethoxy)ethyl]carbamoyl]amino)butyl]urea; bis(trifluoroacetic acid)] showed an inhibition at 1 µM in test [1] of 50 to 70%. The activity at 1 µM in test [2] (setting [3]) and in test [2] (setting [4]) was 100 to 130% in each case.
`Cc1cc(S(=O)(=O)NCCOCCOCCNC(=O)NCCCCNC(=O)NCCOCCOCCNS(=O)(=O)c2ccc(O[C@H]3c4cc(Cl)cc(C#N)c4C[C@@H]3N3CCNCC3)c(C)c2)ccc1O[C@H]1c2cc(Cl)cc(C#N)c2C[C@@H]1N1CCNCC1` [Example 42, 3-[2-(2-[2-[(4-[[(1S,2S)-6-Chloro-4-cyano-2-(piperazin-1-yl)-2,3-dihydro-1H-inden-1-yl]oxy]-3-methylbenzene)sulfonamido]ethoxy]ethoxy)ethyl]-1-[4-([[2-(2-[2-[(4-[[(1S,2S)-6-chloro-4-cyano-2-(piperazin-1-yl)-2,3-dihydro-1H-inden-1-yl]oxy]-3-methylbenzene)sulfonamido]ethoxy]ethoxy)ethyl]carbamoyl]amino)butyl]urea; bis(trifluoroacetic acid)] gave an inhibition at 1 µM in test [1] of over 70%. In addition, the activity at 1 µM in test [2] (setting [3]) was over 130%; in test [2] (setting [4]), 100 to 130%.
